The text below walks through data of PubChem BioAssay AID330 (DTP/NCI, 2004).

The test deals with P388 leukemia ip, CD2F1 mice, survival T/C. Briefly: NCI In Vivo Anticancer Drug Screen. Data for tumor model P388 Leukemia (intraperitoneal) in CD2F1 (CDF1) mice. The conditions noted are these: endpoint: median survival time, higher = longer survival. Summed up: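 Mice carrying the transplanted tumor received test compound or vehicle. Survival was recorded in each group, and the value is the treated-group measurement divided by that of the vehicle-treated control group.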

The mark [1] stands for this setting: dose: 12.5 mg/kg/injection, schedule: Q01DX005 (ip), vehicle: Klucel (hydroxypropylcellulose) (HPC).
Where [2] appears, read: dose: 25.0 mg/kg/injection, schedule: Q01DX005 (ip), vehicle: Klucel (hydroxypropylcellulose) (HPC).
The mark [3] stands for this setting: dose: 50.0 mg/kg/injection, schedule: Q01DX005 (ip), vehicle: Klucel (hydroxypropylcellulose) (HPC).
Where [4] appears, read: dose: 100.0 mg/kg/injection, schedule: Q01DX005 (ip), vehicle: Klucel (hydroxypropylcellulose) (HPC).
Setting [5] is: dose: 200.0 mg/kg/injection, schedule: Q01DX005 (ip), vehicle: Klucel (hydroxypropylcellulose) (HPC).
[6] abbreviates: dose: 100.0 mg/kg/injection, schedule: Q01DX001 (ip), vehicle: saline with Tween-80.
[7] abbreviates: dose: 200.0 mg/kg/injection, schedule: Q01DX001 (ip), vehicle: saline with Tween-80.
Setting [8] is: dose: 400.0 mg/kg/injection, schedule: Q01DX001 (ip), vehicle: saline with Tween-80.
Setting [9] is: dose: 60.0 mg/kg/injection, schedule: Q01DX005 (ip), vehicle: saline with Tween-80.
The mark [10] stands for this setting: dose: 120.0 mg/kg/injection, schedule: Q01DX005 (ip), vehicle: saline with Tween-80.
The mark [11] stands for this setting: dose: 25.0 mg/kg/injection, schedule: Q01DX009 (ip), vehicle: Klucel (hydroxypropylcellulose) (HPC).
The mark [12] stands for this setting: dose: 50.0 mg/kg/injection, schedule: Q01DX009 (ip), vehicle: Klucel (hydroxypropylcellulose) (HPC).
[13] abbreviates: dose: 100.0 mg/kg/injection, schedule: Q01DX009 (ip), vehicle: Klucel (hydroxypropylcellulose) (HPC).
Setting [14] is: dose: 200.0 mg/kg/injection, schedule: Q01DX009 (ip), vehicle: Klucel (hydroxypropylcellulose) (HPC).

Molecules are shown by their SMILES. “And” between values parts separate entries of the source, which are not always exact repeats. Identical values can stand only once. Toxic doses and inconclusive results are not listed.

With `CC1S(=O)(=O)OCCOS1(=O)=O`, the T/C reads like this: under setting [1], 162 % of control; under setting [2], 175 % of control and 275 % of control; under setting [3], 165 % of control and 288 % of control.
On to `COc1cccc(/C=N/NC(=O)c2ccccc2N2CCCC2)c1O`, for which the T/C runs as follows: (dose: 12.5 mg/kg/injection, schedule: Q01DX009 (ip), vehicle: olive oil, sesame oil, peanut oil) 93 % of control; (dose: 25.0 mg/kg/injection, schedule: Q01DX009 (ip), vehicle: olive oil, sesame oil, peanut oil) 97 % of control; (dose: 50.0 mg/kg/injection, schedule: Q01DX009 (ip), vehicle: olive oil, sesame oil, peanut oil) 97 % of control; (dose: 100.0 mg/kg/injection, schedule: Q01DX009 (ip), vehicle: olive oil, sesame oil, peanut oil) 96 % of control; (dose: 200.0 mg/kg/injection, schedule: Q01DX009 (ip), vehicle: olive oil, sesame oil, peanut oil) 94 % of control.
`C=C(C)c1nc(N)nc(N(C)C)n1`: the T/C by setting is: under setting [3], 100 % of control; under setting [4], 102 % of control; under setting [5], 100 % of control.
As to `COC(=O)/C(=C/C=C/c1ccccc1)N=[N+]=[N-]`, the T/C by setting is: under setting [6], 114 % of control; under setting [7], 105 % of control; under setting [8], 100 % of control.
`CN1c2ccccc2C(=O)N2C(=O)CCC21C` (stereo not drawn): the T/C is, setting by setting: under setting [9], 102 % of control; under setting [10], 88 % of control.
As for `CC1(c2ccccc2)CCC(=O)NC1=O` (stereo not drawn), the T/C reads like this: under setting [9], 102 % of control; under setting [10], 101 % of control; (dose: 240.0 mg/kg/injection, schedule: Q01DX005 (ip), vehicle: saline with Tween-80) 106 % of control.
Consider `CCN(CC)C(=S)S[Se](SC(=S)N(CC)CC)(SC(=S)N(CC)CC)SC(=S)N(CC)CC`, for which the T/C reads like this: (dose: 12.5 mg/kg/injection, schedule: Q01DX009 (ip), vehicle: Klucel (hydroxypropylcellulose) (HPC)) 103 % of control; under setting [11], 100 % of control; under setting [12], 97 % of control; under setting [13], 104 % of control.
For the compound `Oc1cc2c(cc1C(c1ccc(F)cc1)n1ccnc1)OCO2` (stereo not drawn), the T/C was 96 % of control (dose: 60.0 mg/kg/injection, schedule: Q01DX005 (ip), vehicle: Klucel (hydroxypropylcellulose) (HPC)); 94 % of control (dose: 120.0 mg/kg/injection, schedule: Q01DX005 (ip), vehicle: Klucel (hydroxypropylcellulose) (HPC)); 91 % of control (dose: 240.0 mg/kg/injection, schedule: Q01DX005 (ip), vehicle: Klucel (hydroxypropylcellulose) (HPC)).
For the compound `CC(C)=CCCC(C)(OC1OC(CO)C(O)C(O)C1O)C1CCC2(C)C1C(O)CC1C3(C)CCC(O)C(C)(C)C3C(OC3OC(CO)C(O)C(O)C3OC3OC(C)C(O)C(O)C3O)CC12C` (stereo not drawn), the T/C is, setting by setting: (dose: 2.0 mg/kg/injection, schedule: Q01DX009 (ip), vehicle: Klucel (hydroxypropylcellulose) (HPC)) 88 % of control; (dose: 4.0 mg/kg/injection, schedule: Q01DX009 (ip), vehicle: Klucel (hydroxypropylcellulose) (HPC)) 92 % of control; (dose: 8.0 mg/kg/injection, schedule: Q01DX009 (ip), vehicle: Klucel (hydroxypropylcellulose) (HPC)) 92 % of control; (dose: 16.0 mg/kg/injection, schedule: Q01DX009 (ip), vehicle: Klucel (hydroxypropylcellulose) (HPC)) 95 % of control; under setting [11], 98 % of control; (dose: 32.0 mg/kg/injection, schedule: Q01DX009 (ip), vehicle: Klucel (hydroxypropylcellulose) (HPC)) 88 % of control. Further, the T/C under setting [12] was 100 % of control, the T/C under setting [13] was 100 % of control and the T/C under setting [14] was 98 % of control.
As for `CN(C)CCC(=O)/C=C\c1ccccc1`, the T/C reads like this: (dose: 25.0 mg/kg/injection, schedule: Q01DX009 (ip), vehicle: saline) 107 % of control; (dose: 50.0 mg/kg/injection, schedule: Q01DX009 (ip), vehicle: saline) 108 % of control.
As to `CCCCOP(O)(=S)OCCCC.[Ti]`, the T/C by setting is: under setting [13], 96 % of control; under setting [14], 96 % of control; (dose: 400.0 mg/kg/injection, schedule: Q01DX009 (ip), vehicle: Klucel (hydroxypropylcellulose) (HPC)) 95 % of control.
On to `CNC(=O)N(CCO)/N=C\c1ccc([N+](=O)[O-])o1`, for which the T/C under setting [3] is 99 % of control, the T/C under setting [4] was 97 % of control and the T/C under setting [5] is 103 % of control.
In the case of `O=C(c1ccc(Cl)cc1)c1no[n+]([O-])c1C(=O)c1ccc(Cl)cc1`, the T/C by setting is: (dose: 25.0 mg/kg/injection, schedule: Q01DX009 (ip), vehicle: saline with Tween-80) 115 % of control; (dose: 50.0 mg/kg/injection, schedule: Q01DX009 (ip), vehicle: saline with Tween-80) 111 % of control; (dose: 200.0 mg/kg/injection, schedule: Q01DX009 (ip), vehicle: saline with Tween-80) 118 % of control.
For `CC(=O)CC(C)=O.CC(=O)CC(C)=O.CCCn1ccnc1.O=N[O-].[Co]`, the T/C by setting is: (dose: 50.0 mg/kg/injection, schedule: Q01DX001 (ip), vehicle: saline with Tween-80) 95 % of control; under setting [6], 101 % of control and 93 % of control; under setting [7], 99 % of control and 120 % of control; under setting [8], 108 % of control.
In the case of `CC(/C=C/c1ccccc1)=N\O`, the T/C was 97 % of control under setting [3], 99 % of control under setting [4] and 97 % of control under setting [5].
In the case of `C/C(=N\N=c1\sc2ccccc2n1CC(=O)O)c1ccccc1`, the T/C is, setting by setting: under setting [6], 97 % of control; under setting [7], 89 % of control.
Consider `CCCCC(C)(C(=O)OCC)C(=O)OCC`, for which the T/C by setting is: under setting [1], 105 % of control; under setting [2], 105 % of control; under setting [3], 105 % of control; under setting [4], 105 % of control; under setting [5], 111 % of control; (dose: 400.0 mg/kg/injection, schedule: Q01DX005 (ip), vehicle: Klucel (hydroxypropylcellulose) (HPC)) 105 % of control.
As to `O=C(NCCCl)Nc1ccn(C(=O)NCCCl)c(=O)n1`, the T/C by setting is: (dose: 50.0 mg/kg/injection, schedule: Q01DX005 (ip), vehicle: saline with Tween-80) 95 % of control; (dose: 100.0 mg/kg/injection, schedule: Q01DX005 (ip), vehicle: saline with Tween-80) 100 % of control.
